The values that follow come from patent US10017535B2, “Amphiphilic compounds with neuroprotective properties” (USTAV ORGANICKE CHEMIE A BIOCHEMIE AV CR, v.v.i., priority 2014, dated 2018).

Where two headings read alike, the source gives them in different places.

The experiment concerns the target T1, NR1-1a/NR2B NMDA receptor (Rattus norvegicus, UniProt P35439+Q00960).
T1 construct: expressed in transfected cells; host or cells: HEK293 cells (ATCC CRL1573)
Put plainly: Patch-clamp inhibition of glutamate-evoked currents at recombinant NMDA receptors in transfected HEK293 cells. Type of experiment: cell-based. Here is the method: Transfected cells were identified by means of fluorescent green protein (GFP) fluorescence. Its genus was transfected together with the both receptor subunit genes.
Steroid-containing solutions were prepared from fresh solution (20 mmol·l^−1, of steroid dissolved in dimethyl sulfoxide, DMSO), which was added to the extracellular solution containing 1 mmol·l^−1 glutamic acid and 10 μmol·l^−1 of glycine. Identical concentrations of DMSO were added to all other extracellular solutions.
Current responses produced by extracellular application of glutamic acid solution (1 mmol·l^−1) were measured from the whole cell by patch-clamp technique, which is used for the study of transport of charged particles through model and also natural biological membranes. The currents were measured at membrane potential maintained at −60 mV and +60 mV.
Same amounts (0.3 μg) of cDNA coding NR1, NR2 and GFP (green fluorescent protein) (pQBI 25, Takara, Japan) were mixed with 0.9 μl of Matra-A Reagent (IBA, Göttingen, Germany) and added to confluent HEK293 cells cultivated in v 24-pit cultivating plate. After trypsination, the cells were re-suspended in Opti-MEM® I containing 1% fetal bovine serum. Subsequently, 20 mmol·l^−1 MgCl2, 1 mmol l^−1 D,L-2-amino-5-phosphonopentanoic acid, 3 mmol·l^−1 kynurenic acid was added to the mixture and cells were inoculated on the polylysine-coated glass plates having 25 mm in diameter. The following genes coding NMDA receptor subunits were used for transfection: NR1-1 a (GenBank accession No. U08261) and NR2B (GenBank accession No. M91562).
HEK293 Cultured cells were used for electrophysiological investigations with a latency of 16-40 h after transfection. Whole-cell currents were measured by patch-clamp amplifier (Axopatch 1D; Axon Instruments, Inc. Foster City, USA) after capacitance and serial resistance (<10 MΩ) compensation to 80-90%. Agonist-induced responses were filtered to 1 kHz (8-pole Bessel filter; Frequency Devices, Haverhill, USA), digitized with sampling frequency of 5 kHz and analyzed by pClamp version 9 software (Axon Instruments, USA). […] Extracellular solution (ECS) contained 160 mmol·l^−1 sodium chloride, 2.5 mmol·l^−1 potassium chloride, 10 mmol·l^−1 HEPES, 10 mmol·l^−1 glucose, 0.2 mmol·l^−1 EDTA a 0.7 mmol·l^−1 calcium chloride (pH adjusted to 7.3 by sodium hydroxide solution). Glycine was added to both testing and control solution. Moreover, bicuculline (10 μmol·l^−1) and tetrodotoxin (0.5 μmol·l^−1) was added to hippocampal cultures. Steroid-containing solutions were prepared from fresh solution (20 mmol·l^−1) of steroid dissolved in dimethyl sulfoxide (DMSO). Same concentrations of DMSO were used in all extracellular solutions. Control and experimental solutions were applied via microprocessor-controlled perfusion system with approx. rate of solution exchange in areas adjacent to cells reaching ˜10 ms.
Current responses produced by 100 μmol·l^−1 of NMDA (in the case of hipocampal neurones), or by 1 mmol·l^−1 of glutamate (on recombinant NMDA receptors) were measured at membrane potential maintained at −60 mV. […] Relative effect of steroid-induced inhibition was used for calculating IC50.
In general terms: The patch-clamp technique gives a direct electrical read-out from membranes.

Where [1] appears, read: calculated from relative steroid-induced inhibition, Hill's coefficient 1.2, read-out: IC50.
[2] abbreviates: HEK293, steroid concentration 50 μmol·l^−1, 1 mmol·l^−1 glutamate, −60 mV, read-out: Mean % change ± SD.
The mark [3] stands for this setting: HEK293, read-out: Mean % change ± SD.

T1 sequence (Q00960 27-1482, other chains not shown): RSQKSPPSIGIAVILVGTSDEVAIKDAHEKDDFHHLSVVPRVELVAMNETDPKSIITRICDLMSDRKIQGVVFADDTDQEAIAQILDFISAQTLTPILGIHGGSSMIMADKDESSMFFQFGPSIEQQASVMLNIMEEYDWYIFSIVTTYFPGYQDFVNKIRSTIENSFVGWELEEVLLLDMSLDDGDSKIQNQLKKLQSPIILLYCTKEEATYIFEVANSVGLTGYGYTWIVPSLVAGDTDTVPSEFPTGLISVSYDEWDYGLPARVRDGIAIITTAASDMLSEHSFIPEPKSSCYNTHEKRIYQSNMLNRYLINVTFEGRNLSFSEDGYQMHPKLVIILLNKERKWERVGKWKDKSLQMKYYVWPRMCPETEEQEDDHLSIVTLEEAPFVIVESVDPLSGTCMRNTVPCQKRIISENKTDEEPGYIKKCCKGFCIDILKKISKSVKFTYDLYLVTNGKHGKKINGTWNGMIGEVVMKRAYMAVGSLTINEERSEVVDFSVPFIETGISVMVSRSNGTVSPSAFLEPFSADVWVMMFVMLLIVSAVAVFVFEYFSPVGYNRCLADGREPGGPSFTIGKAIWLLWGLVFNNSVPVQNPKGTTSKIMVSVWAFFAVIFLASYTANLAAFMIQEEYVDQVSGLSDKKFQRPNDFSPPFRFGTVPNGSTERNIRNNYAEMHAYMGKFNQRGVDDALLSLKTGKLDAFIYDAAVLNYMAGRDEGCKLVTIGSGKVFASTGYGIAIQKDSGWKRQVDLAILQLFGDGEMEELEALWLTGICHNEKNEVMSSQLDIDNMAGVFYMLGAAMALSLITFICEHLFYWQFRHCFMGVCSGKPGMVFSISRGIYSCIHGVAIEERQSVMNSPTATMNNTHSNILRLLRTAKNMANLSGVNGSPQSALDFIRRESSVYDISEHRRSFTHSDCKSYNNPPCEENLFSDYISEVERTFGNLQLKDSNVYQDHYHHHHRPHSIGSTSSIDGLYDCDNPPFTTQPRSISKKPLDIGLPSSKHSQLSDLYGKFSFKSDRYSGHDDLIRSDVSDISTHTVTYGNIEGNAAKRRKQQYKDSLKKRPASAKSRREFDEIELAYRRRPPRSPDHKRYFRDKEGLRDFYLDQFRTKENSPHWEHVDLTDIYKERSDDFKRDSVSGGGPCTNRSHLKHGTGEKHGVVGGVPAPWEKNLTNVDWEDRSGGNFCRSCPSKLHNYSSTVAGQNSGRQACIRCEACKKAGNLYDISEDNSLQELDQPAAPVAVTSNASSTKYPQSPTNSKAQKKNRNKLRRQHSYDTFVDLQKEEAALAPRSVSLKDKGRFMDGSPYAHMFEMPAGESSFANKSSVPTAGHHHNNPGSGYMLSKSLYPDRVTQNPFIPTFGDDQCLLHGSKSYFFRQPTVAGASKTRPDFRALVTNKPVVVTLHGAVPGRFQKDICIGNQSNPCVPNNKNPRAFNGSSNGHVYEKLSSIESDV

The IC50 is the concentration that inhibits the measured activity by half. For `C[C@]12CC[C@@H](OS(=O)(=O)O)C[C@H]1CC[C@H]1CCCC[C@@H]12.c1ccncc1` [Compound 8, Pyridinium (2R,4aS,4bS,8aR,10aR)-4a-methyltetradecahydrophenanthren-2-yl 2-Sulfate], the IC50 under setting [1] is 28.3 µM. Further, the “Mean % change ± SD” value (steroid concentration 100 μmol·l^−1, 1 mmol·l^−1 glutamate, −60 mV) amounted to 78.3 ± 5.5%.

On to `COC[C@@]1(C)CC[C@H]2[C@@H](CC[C@@H]3C[C@H](OS(=O)(=O)O)CC[C@@]32C)[C@@H]1C` [Compound 18, Pyridinium (2R,4aS,4bS,7S,8S,8aS,10aR)-7-(methoxymethyl)-4a,7,8-trimethyltetra-decahydrophenanthren-2-yl 2-sulfate], for which, under setting [2], the inhibition at 50 µM came out at 60.5 ± 4.6%. Also, under setting [1], the IC50 is 33 µM.

Take `COC[C@@]1(C)CC[C@H]2[C@@H](CC[C@@H]3C[C@H](OC(=O)CCC(=O)O)CC[C@@]32C)C1C` (stereo partly drawn) [Compound 19, 4-(((2R,4aS,4bS,7S,8aS,10aR)-7-(methoxymethyl)-4a,7,8-trimethyltetradecahydrophenanthren-2-yl)oxy)-4-oxobutanoic acid]: under setting [2], the inhibition at 50 µM amounted to 47.4 ± 4.3%. The IC50 under setting [1] was 55 µM.

Turning to `COC(=O)C1(C)CCC2C(CCC3CC(OS(=O)(=O)O)CCC32C)C1C` [Compound 22, Pyridinium (2R,4aS,7S,8S,10aR)-7-(methoxycarbonyl)-4a,7,8-trimethyltetra-decahydrophenanthren-2-yl 2-sulfate], under “HEK293, steroid concentration 100 μmol·l^−1, 1 mmol·l^−1 glutamate, −60 mV, read-out: Mean % change ± SD”, the inhibition at 100 µM is 40.9 ± 6.1%. Moreover, the IC50 under setting [1] was 74.6 µM.

For `C[C@@H]1CC[C@H]2[C@@H](CC[C@@H]3C[C@H](OS(=O)(=O)O)CC[C@@]32C)C1` [Compound 35, Pyridinium (2R,4aS,4bS,7R,8aS,10aR)-4a,7-dimethyltetradecahydrophenanthren-2-yl 2-sulfate], the inhibition at 50 µM under setting [2] was determined as 85 ± 1.2%. Also, under setting [1], the IC50 was 12 µM.

Regarding `COC(=O)[C@@]1(C)CC[C@H]2[C@@H](CC[C@@H]3C[C@H](OS(=O)(=O)O)CC[C@@]32C)C1` [Compound 40, Methyl (2S,4aS,4bS,7R,8aR,10aS)-2,4b-dimethyl-7-(sulfooxy)tetradecahydrophenanthren-2-carboxylate], the inhibition at 50 µM under setting [2] was 14.4 ± 1.8%. Also, the IC50 under setting [1] was 224 µM.

`C[C@@]12CCC[C@H]1[C@@H]1CC[C@@H]3C[C@H](OS(=O)(=O)O)CC[C@]3(C)[C@H]1CC2.c1ccncc1` [Compound 49, Pyridinium (3R,5R,8S,9S,10S,13S,14S)-10,13-dimethylhexadecahydro-1H-cyclopenta[a]phenanthren-3-yl 3-sulfate]: under setting [1], the concentration for half-maximal inhibition (IC50) was 2.1 µM. Besides, the “Mean % change ± SD” value (steroid concentration 2 μmol·l^−1, 1 mmol·l^−1 glutamate, −60 mV) stood at 49.2 ± 6.6%.

`C[C@@]12CCC[C@H]1[C@@H]1CC[C@@H]3C[C@H](OC(=O)C(=O)O)CC[C@]3(C)[C@H]1CC2` [Compound 50, 2-(((3R,5R,8S,9S,10S,13S,14S)-10,13-Dimethylhexadecahydro-1H-cyclopenta[a]phenanthren-3-yl)oxy)-2-oxoethanoic acid]: the inhibition at 10 µM under setting [3] came to 64 ± 7%. Also, under setting [1], the IC50 was 6.3 µM.

For the compound `C[C@@]12CCC[C@H]1[C@@H]1CC[C@@H]3C[C@H](OC(=O)CC(=O)O)CC[C@]3(C)[C@H]1CC2` [Compound 51], under setting [3], the inhibition at 10 µM stood at 42 ± 14%. Besides, under setting [1], the IC50 is 15.5 µM.

For the compound `C[C@@]12CCC[C@H]1[C@@H]1CC[C@@H]3C[C@H](OC(=O)CCC[N+](C)(C)C)CC[C@]3(C)[C@H]1CC2` [Compound 62, 4-(((3R,5R,8S,9S,10S,13S,14S)-10,13-Dimethylhexadecahydro-1H-cyclopenta[a]-phenanthren-3-yl)oxy)-N,N,N-trimethyl-4-oxobutan-1-ammonium chloride], the inhibition at 1 µM under setting [3] was 34 ± 5%. The IC50 under setting [1] was 1.7 µM.

On to `C[C@]12CC[C@@H](OC(=O)CCC(=O)O)C[C@H]1CC[C@@H]1[C@@H]2CC[C@]2(C)C=CC[C@@H]12` [Compound 64, 4-(((3R,5R,8R,9S,10S,13R,14S)-10,13-Dimethyl-2,3,4,5,6,7,8,9,10,11,12,13,14,15-tetra-decahydro-1H-cyclopenta[a]phenanthren-3-yl)oxy)-4-oxobutanoic acid], for which the inhibition at 10 µM under setting [3] is 45.9 ± 11.7%. Also, under setting [1], the IC50 is 12.9 µM.

`C[C@]12CC[C@@H](OC(=O)CC(=O)O)C[C@H]1CC[C@@H]1[C@@H]2CC[C@]2(C)C=CC[C@@H]12` [Compound 65, 3-(((3R,5R,8R,9S,10S,13R,14S)-10,13-Dimethyl-2,3,4,5,6,7,8,9,10,11,12,13,14,15-tetradecahydro-1H-cyclopenta[a]phenanthren-3-yl)oxy)-3-oxopropanoic acid]: under setting [3], the inhibition at 10 µM worked out at 44 ± 11%. The half-inhibitory concentration (IC50) under setting [1] was 13.5 µM.

In the case of `C=C1CC[C@H]2[C@@H]3CC[C@@H]4C[C@H](OC(=O)C[N+](C)(C)C)CC[C@]4(C)[C@H]3CC[C@]12C` [Compound 76, 2-(((3R,5R,8R,9S,10S,13S,14S)-10,13-Dimethyl-17-methylenehexadecahydro-1H-cyclopenta[a]phenanthren-3-yl)oxy)-N,N,N-trimethyl-2-oxoethan-1-ammonium chloride], the inhibition at 50 µM under setting [3] worked out at 50 ± 10%. For the same compound, the IC50 under setting [1] is 51.7 µM.

As to `C/C=C1/CC[C@H]2[C@@H]3CC[C@@H]4C[C@H](OC(=O)CCCC(=O)O)CC[C@]4(C)[C@H]3CC[C@]12C` [Compound 85, 5-(((3R,5R,8R,9S,10S,13S,14S,Z)-17-Ethylidene-10,13-dimethylhexadecahydro-1H-cyclopenta[a]phenanthren-3-yl)oxy)-5-oxopentanoic acid], under setting [3], the inhibition at 50 µM was 59.4 ± 7.8%. For the same compound, the 50% inhibitory concentration (IC50) under setting [1] was 38.4 µM.

As to `C[C@]12CC[C@@H](OS(=O)(=O)O)C[C@H]1CC[C@@H]1[C@@H]2CC[C@]2(C)[C@@H](I)CC[C@@H]12` [Compound 93, Pyridinium (3R,5R,8R,9S,10S,13S,14S,17S)-17-iodo-10,13-dimethylhexadecahydro-1H-cyclopenta[a]phenanthren-3-yl 3-sulfate], the inhibition at 5 µM under setting [3] is 90.5 ± 2.2%. Under setting [1], the 50% inhibitory concentration (IC50) is 0.8 µM.

`C[C@]12CC[C@@H](OS(=O)(=O)O)C[C@H]1CC[C@@H]1[C@@H]2CC[C@@]2(C)[C@H]1CCC2(F)F` [Compound 95, Pyridinium (3R,5R,8R,9S,10S,13S,14S)-17,17-difluoro-10,13-dimethylhexadecahydro-1H-cyclopenta[a]phenanthren-3-yl 3-sulfate]: the concentration for half-maximal inhibition (IC50) is 7 µM. For the same compound, the inhibition at 10 µM under setting [3] was 61.2 ± 5.1%.

As for `C[C@]12CC[C@@H](OS(=O)(=O)O)C[C@H]1CC[C@@H]1[C@@H]2CC[C@@]2(C)[C@H]1CC[C@@]21CO1` [Compound 97, Pyridinium (3R,5R,8R,9S,10S,13S,14S,17S)-10,13-dimethylhexadecahydrospiro-[cyclopenta[a]phenanthren-17,2′-oxiran]-3-yl 3-sulfate], the inhibition at 100 µM under setting [3] stood at 78 ± 8.9%. Moreover, the IC50 under setting [1] is 45 µM.

In the case of `CC12CCCCC1C1CCC3CC(OS(=O)(=O)O)CCC3(C)C1CC2` [Compound 101, Pyridinium (2R,4aS,4bS,6aS,10bS,6aS,12aR)-4a,6a-dimethyloctadecahydrochrysen-2-yl 2-sulfate], the inhibition at 5 µM (HEK293, steroid concentration 5 μmol·l^−1, 1 mmol·l^−1 glutamate, −60 mV, read-out: Mean % change ± SD) turned out to be 69.1 ± 5.9%. Moreover, the IC50 under setting [1] was 2.3 µM.

As to `C=C1C[C@H]2[C@@H]3CC[C@@H]4C[C@H](OS(=O)(=O)O)CC[C@]4(C)[C@H]3CC[C@]2(C)C1` [Compound 114, Pyridinium (3R,5R,8S,9S,10S,13R,14S)-10,13-dimethyl-16-methylenhexadekhydro-1H-cyclopenta[a]phenanthren-3-yl 3-sulfate], the inhibition at 3 µM under setting [3] is 59.1 ± 3.8%. The IC50 under setting [1] was 2.1 µM.
